Each structure is given as a SMILES string. pIC50: −log10 of the molar value. Some results are limits rather than exact numbers.

In the experiment the test system is 8XTBD luciferase reporter (YAP reporter) in HEK293T cells. The experiment can be described thus: YAP Reporter Assay. The note with it: Homo sapiens, HEK-293T; HEK293T cells stably transfected with 8XTBD luciferase reporter and pRLTK; 24-hr incubation; top concentration 3 μM; read-out: Firefly Luciferase IC50. It is filed as cell-based. A digest of the protocol: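 HEK293T cells stably carrying 8XTBD firefly luciferase and TK-renilla (3×10^3 cells/well) dosed 3-4 h after plating with compounds from 3 μM final, 1:3 dilution, 10 points, quadruplicates. After 24 h at 37° C, Dual-Glo readings gave IC50 and maximum inhibition reported separately for firefly and renilla.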
Background: Reporter assays use an easily measured gene product as a stand-in for the process of interest.
For orientation: pIC50 means −log10 of the IC50, conventionally taken in molar units. `CCN1CC([C@H](C)NC(=O)c2ccc3c(-c4ccc(C(F)(F)F)cc4)cccc3c2)C1` [Compound 149, N-[(1S)-1-(1-Ethylazetidin-3-yl)ethyl]-5-[4-(trifluoromethyl)phenyl]naphthalene-2-carboxamide]: the pIC50 is 6.00 to 7.00.

`CCN1CC([C@@H](C)NC(=O)c2cnc3c(-c4ccc(C(F)(F)F)cc4)cccc3c2)C1` [Compound 150, N-[(1R)-1-(1-Ethylazetidin-3-yl)ethyl]-8-[4-(trifluoromethyl)phenyl]quinoline-3-carboxamide]: the pIC50 was 5.52 to 6.00. On to `C[C@@H](NC(=O)c1ccc2c(-c3ccc(C(F)(F)F)cc3)cccc2c1)C1CN(C)C1` [Compound 153, N-[(1R)-1-(1-methylazetidin-3-yl)ethyl]-5-[4-(trifluoromethyl)phenyl]naphthalene-2-carboxamide], for which the pIC50 is 6.00 to 7.00. As to `C[C@H](NC(=O)c1ccc2c(-c3ccc(C(F)(F)F)cc3)cccc2c1)C1(O)CNC1` [Compound 155, (S)—N-(1-(3-hydroxyazetidin-3-yl)ethyl)-5-(4-(trifluoromethyl)phenyl)-2-naphthamide], the pIC50 is 6.00 to 7.00. Consider `C[C@@H](NC(=O)c1cnc2c(-c3ccc(C(F)(F)F)cc3)cccc2c1)C1CN(C)C1` [Compound 156, N-[(1R)-1-(1-methylazetidin-3-yl)ethyl]-8-[4-(trifluoromethyl)phenyl]quinoline-3-carboxamide], for which the pIC50 is 6.00 to 7.00. As to `C[C@@H](NC(=O)c1cnc2c(-c3ccc(C(F)(F)F)cc3)cccc2c1)C1CNC1` [Compound 158, N-[(1R)-1-(Azetidin-3-yl)ethyl]-8-[4-(trifluoromethyl)phenyl]quinoline-3-carboxamide], the pIC50 was 6.00 to 7.00.

As to `O=C(NC(CCO)CCO)c1cnc2c(-c3ccc(C(F)(F)F)cc3)cccc2c1` [Compound 160, N-(1,5-dihydroxypentan-3-yl)-8-(4-(trifluoromethyl)phenyl)quinoline-3-carboxamide], the pIC50 was 5.52 to 6.00. In the case of `O=C(NC(CCO)CCO)c1ccc2c(-c3ccc(C(F)(F)F)cc3)cccc2c1` [Compound 161, N-(1,5-dihydroxypentan-3-yl)-5-(4-(trifluoromethyl)phenyl)-2-naphthamide], the pIC50 was 6.00 to 7.00. Next, `O=C(N[C@H](CO)c1ccccn1)c1ccc2c(-c3ccc(C(F)(F)F)cc3)cccc2c1` [Compound 162, N-[(1S)-2-hydroxy-1-(2-pyridyl)ethyl]-5-[4-(trifluoromethyl)phenyl]naphthalene-2-carboxamide]: 5.52 to 6.00; `O=C(N[C@@H](CO)c1ccccn1)c1ccc2c(-c3ccc(C(F)(F)F)cc3)cccc2c1` [Compound 163, N-[(1R)-2-hydroxy-1-(2-pyridyl)ethyl]-5-[4-(trifluoromethyl)phenyl]naphthalene-2-carboxamide]: more than 7.00; `O=C(N[C@@H](CCO)c1ccccn1)c1ccc2c(-c3ccc(C(F)(F)F)cc3)cccc2c1` [Compound 164, (S)—N-(3-hydroxy-1-(pyridin-2-yl)propyl)-5-(4-(trifluoromethyl)phenyl)-2-naphthamide]: more than 7.00.

On to `O=C(N[C@H](CCO)c1ccccn1)c1ccc2c(-c3ccc(C(F)(F)F)cc3)cccc2c1` [Compound 165, (R)—N-(3-hydroxy-1-(pyridin-2-yl)propyl)-5-(4-(trifluoromethyl)phenyl)-2-naphthamide], for which the pIC50 is 5.52 to 6.00. With `C[C@@H](CCO)NC(=O)c1ccc2c(-c3ccc(C(F)(F)F)cc3)cccc2c1` [Compound 166, N-[(1S)-3-hydroxy-1-methyl-propyl]-5-[4-(trifluoromethyl)phenyl]naphthalene-2-carboxamide], the negative-log IC50 (pIC50) is more than 7.00.

As to `C[C@H](CCO)NC(=O)c1ccc2c(-c3ccc(C(F)(F)F)cc3)cccc2c1` [Compound 167, N-[(1R)-3-hydroxy-1-methyl-propyl]-5-[4-(trifluoromethyl)phenyl]naphthalene-2-carboxamide], the pIC50 was more than 7.00. In the case of `C[C@@H](CCN)NC(=O)c1ccc2c(-c3ccc(C(F)(F)F)cc3)cccc2c1` [Compound 168, (S)—N-(4-aminobutan-2-yl)-5-(4-(trifluoromethyl)phenyl)-2-naphthamide], the negative logarithm of the IC50 (pIC50) was more than 7.00. To `C[C@H](CCN)NC(=O)c1ccc2c(-c3ccc(C(F)(F)F)cc3)cccc2c1` [Compound 169, (R)—N-(4-aminobutan-2-yl)-5-(4-(trifluoromethyl)phenyl)-2-naphthamide] belongs 6.00 to 7.00.

As to `O=C(NCc1ccnc(CF)n1)c1ccc2c(-c3ccc(C(F)(F)F)cc3)cccc2c1` [Compound 170, N-((2-(fluoromethyl)pyrimidin-4-yl)methyl)-5-(4-(trifluoromethyl)phenyl)-2-naphthamide], the pIC50 is more than 7.00. To `O=C(NCc1ccnc(COc2ccon2)n1)c1ccc2c(-c3ccc(C(F)(F)F)cc3)cccc2c1` [Compound 171, N-((2-((Isoxazol-3-yloxy)methyl)pyrimidin-4-yl)methyl)-5-(4-(trifluoromethyl)phenyl)-2-naphthamide] belongs 6.00 to 7.00. On to `O=C(NCc1ccnc(COc2c(F)cccc2F)n1)c1ccc2c(-c3ccc(C(F)(F)F)cc3)cccc2c1` [Compound 172, N-((2-((2,6-difluorophenoxy)methyl)pyrimidin-4-yl)methyl)-5-(4-(trifluoromethyl)phenyl)-2-naphthamide], for which the pIC50 is 5.52 to 6.00.

For `C[C@@H](NC(=O)c1ccc2c(-c3ccc(C(F)(F)F)cc3)cccc2c1)c1cccc2nc[nH]c12` [Compound 173, N-[(1R)-1-(3H-benzimidazol-4-yl)ethyl]-5-[4-(trifluoromethyl)phenyl]naphthalene-2-carboxamide], the negative logarithm of the IC50 (pIC50) is 6.00 to 7.00. On to `C[C@H](NC(=O)c1ccc2c(-c3ccc(C(F)(F)F)cc3)cccc2c1)c1cccc2nc[nH]c12` [Compound 174, N-[(1S)-1-(3H-benzimidazol-4-yl)ethyl]-5-[4-(trifluoromethyl)phenyl]naphthalene-2-carboxamide], for which the pIC50 was more than 7.00. As for `C[C@@H](NC(=O)c1ccc2c(-c3ccc(C(F)(F)F)cc3)cccc2c1)c1cccc2ccsc12` [Compound 176, N-[(1R)-1-(benzothiophen-7-yl)ethyl]-5-[4-(trifluoromethyl)phenyl]naphthalene-2-carboxamide], the pIC50 was 6.00 to 7.00. For `C[C@@H](NC(=O)c1ccc2c(-c3ccc(C(F)(F)F)cc3)cccc2c1)c1cccc2ccc(=O)[nH]c12` [Compound 177, N-[(1R)-1-(2-oxo-1H-quinolin-8-yl)ethyl]-5-[4-(trifluoromethyl)phenyl]naphthalene-2-carboxamide], the pIC50 is more than 7.00. Turning to `C[C@H](NC(=O)c1ccc2c(-c3ccc(C(F)(F)F)cc3)cccc2c1)c1cccc2ccc(=O)[nH]c12` [Compound 178, N-[(1S)-1-(2-oxo-1H-quinolin-8-yl)ethyl]-5-[4-(trifluoromethyl)phenyl]naphthalene-2-carboxamide], the pIC50 is 5.52 to 6.00. `N#Cc1nccc(CNC(=O)c2ccc3c(-c4ccc(C(F)(F)F)cc4)cccc3c2)n1` [Compound 179, N-((2-cyanopyrimidin-4-yl)methyl)-5-(4-(trifluoromethyl)phenyl)-2-naphthamide]: the pIC50 is more than 7.00. To `O=C(NCc1ccnc(Cl)n1)c1ccc2c(-c3ccc(C(F)(F)F)cc3)cccc2c1` [Compound 180, N-((2-chloropyrimidin-4-yl)methyl)-5-(4-(trifluoromethyl)phenyl)-2-naphthamide] belongs 6.00 to 7.00; to `O=C(NCC/C=C/COc1ccon1)c1ccc2c(-c3ccc(C(F)(F)F)cc3)cccc2c1` [Compound 181, N-[(E)-5-isoxazol-3-yloxypent-3-enyl]-5-[4-(trifluoromethyl)phenyl]naphthalene-2-carboxamide], more than 7.00; to `C[C@@H](NC(=O)c1ccc2c(-c3ccc(C(F)(F)F)cc3)cccc2c1)c1cccc2cn[nH]c12` [Compound 182, N-[(1R)-1-(1H-indazol-7-yl)ethyl]-5-[4-(trifluoromethyl)phenyl]naphthalene-2-carboxamide], more than 7.00. For the molecule `C[C@H](NC(=O)c1ccc2c(-c3ccc(C(F)(F)F)cc3)cccc2c1)c1cccc2cn[nH]c12` [Compound 183, N-[(1S)-1-(1H-indazol-7-yl)ethyl]-5-[4-(trifluoromethyl)phenyl]naphthalene-2-carboxamide], the pIC50 was 5.52 to 6.00. On to `NC(=O)c1nc(CNC(=O)c2ccc3c(-c4ccc(C(F)(F)F)cc4)cccc3c2)ns1` [Compound 184, 3-((5-(4-(Trifluoromethyl)phenyl)-2-naphthamido)methyl)-1,2,4-thiadiazole-5-carboxamide], for which the pIC50 is more than 7.00. For `O=C(NCc1ccncn1)c1ccc2c(-c3ccc(C(F)(F)F)cc3)cccc2c1` [Compound 185, N-(pyrimidin-4-ylmethyl)-5-(4-(trifluoromethyl)phenyl)-2-naphthamide], the pIC50 was more than 7.00. `N#Cc1cc(CNC(=O)c2ccc3c(-c4ccc(C(F)(F)F)cc4)cccc3c2)ccn1` [Compound 186, N-((2-cyanopyridin-4-yl)methyl)-5-(4-(trifluoromethyl)phenyl)-2-naphthamide]: the pIC50 was more than 7.00. For the molecule `O=C(NCc1cccc(COc2c(F)cccc2F)n1)c1ccc2c(-c3ccc(C(F)(F)F)cc3)cccc2c1` [Compound 187, N-((6-((2,6-difluorophenoxy)methyl)pyridin-2-yl)methyl)-5-(4-(trifluoromethyl)phenyl)-2-naphthamide], the pIC50 was 6.00 to 7.00. Consider `O=C(NC(CCO)c1ccccn1)c1ccc2c(-c3ccc(C(F)(F)F)cc3)cccc2c1` (centres unmarked) [Compound 188, N-[3-hydroxy-1-(2-pyridyl)propyl]-5-[4-(trifluoromethyl)phenyl]naphthalene-2-carboxamide], for which the pIC50 was more than 7.00. Consider `O=C(NCc1cccc(F)n1)c1ccc2c(-c3ccc(C(F)(F)F)cc3)cccc2c1` [Compound 190, N-((6-fluoropyridin-2-yl)methyl)-5-(4-(trifluoromethyl)phenyl)-2-naphthamide], for which the pIC50 is 6.00 to 7.00.

These data come from US11866431B2, “Bicyclic compounds” (Vivace Therapeutics, Inc., priority 2018, dated 2024).
